According to patent publication US9034914B2, “Pharmaceutical composition comprising rotigotine salts (acid or Na), especially for iontophoresis” (UCB Pharma GmbH, priority 2009, dated 2015):
Structures can show the parent of a compound that is named as a salt. Where two headings read alike, the source gives them in different places. Marks after values point to notes of the source that are not given here.

How the values were obtained:
[1] = passive delivery, patch size 10 cm^2, estimated to deliver 2 mg in 24 h; cited from earlier work
[2] = assay type: in vitro ADME, human; conditions: for steady state flux ± s.d., iontophoresis stage / Mean steady state flux ± sd: 9 h
Experimental: The preparation of human stratum corneum (HSC) was performed according to the method described previously (Nugroho et al., (Nugroho et al., J. Control Release (2005) 103, 393-403) which is incorporated herein by reference. Briefly, within 24 hours after surgical removal of the human skin residual subcutaneous fat was removed. Dermatomed human skin (DHS) was obtained by dermatoming the skin to a thickness of about 300 μm. In order to obtain HSC, DHS was incubated with the dermal side on Whatman paper soaked in a solution of 0.1% trypsin in 150 mM phosphate buffered saline (PBS) pH 7.4 (NaCl: 8 g·L^−1, Na2HPO4: 2.86 g·L^−1, KH2PO4: 0.2 g·L^−1, KCl: 0.19 g·L^−1) overnight at 4° C. and subsequently for 1 hour at 37° C. after which HSC was peeled off from the underlying viable epidermis and dermis. HSC was subsequently washed in a 0.1% trypsin inhibitor solution in Millipore water and several times in water and stored in a desiccator in a N2 environment.
The in vitro transport studies were done by using a 9-channel computer controlled power supply in order to provide a constant direct current (Electronics Department, Gorlaeus Laboratories, Leiden University, The Netherlands) during iontophoresis. The system was equipped with differential input channels per current source enabling on-line measurement of the electric resistance across HSC in each diffusion cell. Ag/AgCl was used as driver electrode pair. All transport experiments were carried out, using a three chamber continuous flow through cell as described elsewhere (Nugroho et al., J. Control Release (2005) 103, 393-403). The donor formulation, buffered with a 10 mM citric buffer, was applied at the anodal side. The cathodal chamber was filled with PBS pH 7.4. The acceptor phase, maintained at 32° C., was continuously perfused with PBS pH 6.2 (NaCl: 8 g·L^−1, KCl: 0.19 g·L^−1, Na2HPO4.2H2O: 0.43 g·L^−1, KH2PO4: 0.97 g·L^−1) at a flow rate of 7.0 ml·h^−1. Unless described elsewhere, the following protocol for the iontophoresis experiments was used: 6 hours of passive diffusion, followed by 9 hours of iontophoresis with a current density of 500 μA·cm^−2 and 5 hours of passive diffusion. Samples were collected every hour with an automatic fraction collector (ISCORetriever IV, Beun De Ronde B V, Abcoude, The Netherlands). The specific conditions of the individual transport studies are described below.
Prior to and at the end of a transport study the pH of donor and acceptor compartment was measured. All samples of the iontophoretic transport studies were analyzed by RP-HPLC using a Superspher® 60 RP-select B, 75 mm-4 mm column (Merck KGaA, Darmstadt, Germany). Rotigotine was detected using a scanning fluorescence detector (Waters™ 474, Millipore, Milford, Mass., USA) at excitation and emission wavelengths of 276 and 302 nm. Acetaminophen was detected using a UV detector (Dual λ Absorbance Detector 2487, Waters, Milford, USA) at a wavelength of 254 nm. Filtered and degassed mobile phase contained 60% H2O (v/v), 40% ACN (v/v) and 0.05% methanesulfonic acid (v/v). The injection volume was 50 μL and the flow rate was set to 1.0 mL·min^−1.
To calculate the steady state flux during passive and iontophoretic transport, the cumulative flux of the transport was plotted as a function of time. The steady state flux was estimated from the linear part of the slope of this plot according to the permeation lag-time method^7. All data are presented as mean±standard deviation (s.d.). When a statistical analysis was performed comparing only 2 groups, a Students t-test was used. When 3 or more groups were compared, a 1-way ANOVA statistical analysis was executed. If the overall p-value was less than 0.05, a bonferonni post-test was applied to compare different groups. For all statistical analysis a significance level of p<0.05 was used. […]

[3] = Maximum (saturation) solubility in 10 mM citric buffer, HPLC assay; assay type: physicochemical; conditions: for solubility at 48 h: 10 mM citric buffer, thermodynamic from solid
Experimental: In order to compare the maximum solubility of pharmaceutically acceptable salts of rotigotine, e.g. rotigotine.H3PO4, with rotigotine.HCl, the solubility studies of rotigotine.salts were carried out as described by Nugroho et al. (Pharm. Res. 21 (2004), 844-855), which is incorporated herein by reference, who determined the solubility of rotigotine.HCl. Briefly, rotigotine.salt was solubilized in 10 mM citric buffer at pH 4, 5 and 6 with and without the presence of NaCl (at room temperature). Subsequent adjustment of pH in each test tube was performed by alternating adding small quantities of 1M NaOH under continuous shaking and subsequent pH measurements, until the pH of each solution had stabilized at the original buffer value. Each solution was shaken for an additional 48 hours, after which each solution was centrifuged and filtered. The concentration in each solution was determined by HPLC. Room temperature or ambient as used in the present application is to be understood to apply to a range from 18° C. to 25° C., preferred is about 20° C.
The maximum solubilities of rotigotine hydrochloride (abbreviated as Ro.HCl) and rotigotine hydrophosphate (abbreviated as rotigotine.H3PO4 or Ro.H3PO4) have been investigated as a function of pH in a number of solvents (table.1). Ro.H3PO4 was dissolved in the indicated buffer upon which the pH of the formed solution was adjusted to the target value by addition of sodium hydroxide solution. […] The drug was assayed by HPLC analysis in the filtered solution.
• Column: Merck Superspher 60 RP select B, length: 7.5 cm, column internal diameter: 4 mm, particle size: 5 μm • Mobile phase: 60% (v/v) water, 40% (v/v) acetonitrile 0.05% (v/v) methanesulfonic acid • Flow: 1.0 ml/min • Injection volume: collected fractions: 50 μl, diluted donor solutions: 4 μl • Column temperature: ambient • Detection: fluorescence, λex=276 nm, λem=302 nm

[4] = 20 cm^2 patch containing 10 mg rotigotine hydrochloride, TTS of WO 94/07468; cited from earlier work
[5] = cited from earlier work; for Solubility: adapted from Nugroho et al.
[6] = pH 5; cited from earlier work

Compound: CCCN(CCc1cccs1)[C@H]1CCc2c(O)cccc2C1 [rotigotine, (−)-5,6,7,8-tetrahydro-6-[propyl-[2-(2-thienyl)ethyl]-amino]-1-naphthalenol]
- maximum plasma concentration (Cmax) [1]: 0.215 ng/mL
- time of maximum plasma concentration [1]: 16 h

Compound: CCCN(CCc1cccs1)[C@H]1CCc2c(O)cccc2C1.O=P(O)(O)O [rotigotine.H3PO4, rotigotine dihydrogen phosphate]
- time to reach steady state flux after current application ([2]; citric buffer pH 5, FIG. 3): within four hours
- steady state flux ± s.d., passive stage ([2]; human, 6 h, 1.24 mg/ml, pH 6): 4.1 ± 1.9 μg/cm^2/h
- steady state flux ± s.d., passive stage ([2]; human, 6 h, 1.28 mg/ml, pH 5): 0.5 ± 0.2 μg/cm^2/h
- steady state flux ± s.d., passive stage ([2]; human, 6 h, 1.42 mg/ml, pH 6): 3.2 ± 0.2 μg/cm^2/h
- steady state flux ± s.d., passive stage ([2]; human, 6 h, 1.46 mg/ml, pH 5): 0.9 ± 0.3 μg/cm^2/h
- steady state flux ± s.d., passive stage ([2]; human, 6 h, 3.11 mg/ml, pH 5): 1.0 ± 0.1 μg/cm^2/h
- steady state flux ± s.d., passive stage ([2]; human, 6 h, 4.13 mg/ml, pH 6): 9.3 ± 0.9 μg/cm^2/h
- steady state flux ± s.d., passive stage ([2]; human, 6 h, 4.3 mg/ml, pH 6): 12.3 ± 0.9 μg/cm^2/h
- steady state flux ± s.d., passive stage ([2]; human, 6 h, 6.95 mg/ml, pH 5): 2.3 ± 0.5 μg/cm^2/h
- steady state flux ± s.d., passive stage ([2]; human, 6 h, 9.88 mg/ml, pH 5.5): 7.7 ± 0.5 μg/cm^2/h
- steady state flux ± s.d., passive stage ([2]; human, 6 h, 15.09 mg/ml, pH 5): 3.6 ± 0.5 μg/cm^2/h
- Flux ([2]; human, 6 h, 31.3 mM, pH 5.5): 24.4±1.9 nmol·cm^−2·h^−1
- maximum passive flux close to saturation in the donor phase ([2]; human, 6 h, pH 5): 10.8±1.9 nmol·cm^−2·h^−1
- maximum passive flux close to saturation in the donor phase ([2]; human, 6 h, pH 6): 24.9 nmol·cm^−2·h^−1
- steady state flux ± s.d., iontophoresis stage ([2]; human, 1.24 mg/ml, pH 6): 26.4 ± 1.3 μg/cm^2/h
- steady state flux ± s.d., iontophoresis stage ([2]; human, 1.28 mg/ml, pH 5): 20.0 ± 4.9 μg/cm^2/h
- Mean steady state flux ± sd ([2]; human, 1.4 mg/ml, pH 5): 22.1 ± 2.5 μg/cm^2/h
- steady state flux ± s.d., iontophoresis stage ([2]; human, 1.42 mg/ml, pH 6): 25.1 ± 3.3 μg/cm^2/h
- steady state flux ± s.d., iontophoresis stage ([2]; human, 1.46 mg/ml, pH 5): 22.1 ± 2.5 μg/cm^2/h
- Mean steady state flux ± sd ([2]; human, 3 mg/ml, pH 5): 26.0 ± 2.1 μg/cm^2/h
- steady state flux ± s.d., iontophoresis stage ([2]; human, 3.11 mg/ml, pH 5): 26.0 ± 2.1 μg/cm^2/h
- steady state flux ± s.d., iontophoresis stage ([2]; human, 4.13 mg/ml, pH 6): 43.0 ± 2.6 μg/cm^2/h
- steady state flux ± s.d., iontophoresis stage ([2]; human, 4.3 mg/ml, pH 6): 47.1 ± 1.8 μg/cm^2/h
- steady state flux ± s.d., iontophoresis stage ([2]; human, 6.95 mg/ml, pH 5): 33.7 ± 4.7 μg/cm^2/h
- steady state flux ± s.d., iontophoresis stage ([2]; human, 9.88 mg/ml, pH 5.5): 47.9 ± 3.1 μg/cm^2/h
- steady state flux ± s.d., iontophoresis stage ([2]; human, 15.09 mg/ml, pH 5): 41.5 ± 3.4 μg/cm^2/h
- decrease in steady state flux resulting from the decrease in donor concentration ([2]; human, 24 h, pH 5): 10%
- increase in maximum flux compared to rotigotine.HCl ([2]; human, pH 5): 170%
- maximum iontophoretic flux ([2]; human, pH 5): 135.8±12.5 nmol·cm^−2·h^−1
- time to reach steady state of passive transport ([2]; no current, prior to iontophoresis): ≤ 6 h
- time to reach steady state flux after current application ([2]; pH 5.5, 31.3 mM, 68 mM NaCl, stepwise increase of current density): ≤ 6 h
- solubility at 48 h ([3]; aqueous buffer, pH range of about 4 to 5.5, read-out: water solubility): 34 to 83 mM
- solubility at 48 h ([3]; pH 4, aqueous buffer, pH 4, 68 mM NaCl, n = 2-3, read-out: Solubility): 80.1 mM
- solubility at 48 h ([3]; pH 4, aqueous buffer, pH 4, no NaCl, n = 2-3, read-out: Solubility): 83.5 mM
- solubility at 48 h ([3]; pH 5, aqueous buffer, pH 5, 68 mM NaCl, n = 2-3, read-out: Solubility): 43 mM
- solubility at 48 h ([3]; pH 5, aqueous buffer, pH 5, no NaCl, n = 2-3, read-out: Solubility): 41.9 mM
- solubility at 48 h ([3]; pH 6, aqueous buffer, pH 6, 68 mM NaCl, n = 2-3, read-out: Solubility): 14.4 mM
- solubility at 48 h ([3]; pH 6, aqueous buffer, pH 6, no NaCl, n = 2-3, read-out: Solubility): 15.7 mM
- solubility fold higher compared to rotigotine-HCl ([3]; pH 4): 12 fold
- solubility fold higher compared to rotigotine-HCl ([3]; pH 5): 7 fold
- solubility fold higher compared to rotigotine-HCl ([3]; pH 6): 2 fold
- effect of addition of NaCl on solubility ([3]; selected pH values 4, 5, 6, 68 mM NaCl, 2-way ANOVA p>0.05): did not affect significantly

Compound: CCCN(CCc1cccs1)[C@H]1CCc2c(O)cccc2C1 [rotigotine.HCl, rotigotine hydrochloride]
- average drug plasma levels [4]: around 0.15 ng/mL
- effect of addition of NaCl on solubility ([5]; 68 mM NaCl, results by Nugroho): reduced tremendously
- Solubility ([5]; pH 4, 68 mM NaCl): 6.75 µmol/mL
- Solubility ([5]; pH 4, no NaCl): 24.39^a,b μmol/ml
- Solubility ([5]; pH 5, 68 mM NaCl): 6.35 µmol/mL
- maximum solubility ([5]; pH 5, in the presence of 0.07 molar NaCl, previous attempts): 6.3 mM
- Solubility ([5]; pH 5, no NaCl, hydrochloride): 22.4 µmol/mL
- Solubility ([5]; pH 5, no NaCl, listed as Rotigotine•HCl, hydrochloride): 22.45^a,b μmol/ml
- Solubility ([5]; pH 6, 68 mM NaCl): 6.52 µmol/mL
- Solubility ([5]; pH 6, no NaCl): 15.87^b μmol/ml
- maximum iontophoretic flux [6]: 80.2±14.4 nmol·cm^−2·h^−1
- transport number [6]: 0.4%
